According to US8673585B2, “Biochemical serum marker” (Biouniversa S.r.l., priority 2009, dated 2014):

Columns and labels:
J774 cells [1] = experiment: Binding of FITC-conjugated recombinant BAG3 to the cell surface (confocal microscopy); format: cell-based, murine; details: FITC-conjugated protein added to the culture medium for 1 hour
Procedure: The BAG3 recombinant protein was then conjugated to FITC using the FluoroTag FITC Conjugation Kit (Sigma). Equal amounts of BSA-FITC (negative control) and rBAG3-FITC were added to the culture medium for 1 hour. Cells were then fixed with a solution of 3.7% formaldehyde and analyzed by a Zeiss LSM confocal microscope.
Binding of the BAG3 protein to the surface of J774 cells was confirmed by use of the recombinant protein conjugated with a fluorophore. BAG3 binding is specific because it is not observed when other proteins, for example BSA, are used instead of BAG3.

J774 cells [2] = experiment: Macrophage activation assay: production of nitrites in the culture medium (Griess reagent); format: cell-based, murine
Procedure: The recombinant BAG3 protein was used for macrophage activation assays, in order to determine the possible role on blood cells of the protein released in the serum. For this purpose, the murine monocyte J774 cell line was treated with different concentrations of the recombinant BAG3 protein, using a pro-inflammatory agent such as lipopolysaccharide (LPS) as a positive control. J774 cells were plated at 60% confluence and incubated for 24 h with the recombinant BAG3 protein at concentrations of 250, 500 ng/ml and 1 mg/ml, alone or in combination with LPS at a concentration of 10 ng/ml.
Moreover the production of nitrites in the culture medium, which correlates with monocyte activation, was verified with the Griess reagent (1% sulfanilamide, 0.1% naftilethylenediamine, 5% phosphoric acid) and measured in a Beckman DU-62 spectrophotometer at 550 nM (FIG. 9b).

| Substance | binding to the surface of J774 cells (J774 cells [1]) | production of nitrites compared to the control (untreated cells) (J774 cells [2]; 24 h, 500 ng/ml, p<0.001, FIG. 9b) | dose dependence of activity (iNOS expression and nitrites) (J774 cells [2]; 24 h, 250, 500 ng/ml and 1 mg/ml, FIGS. 9a and b) |
| --- | --- | --- | --- |
| bovine serum albumin [BSA, reference compound] | not observed | – | – |
| recombinant BAG3 protein: Recombinant human BAG3 protein expressed in E. coli, His-tagged, purified by affinity chromatography; FITC-conjugated for the binding test | confirmed | increased three-fold | dose-dependent |
